Data from publication PMC8222713, “Variation of Two S3b Residues in KV4.1–4.3 Channels Underlies Their Different Modulations by Spider Toxin κ-LhTx-1” (Frontiers in Pharmacology, 2021).
Where a SMILES comes first, the peptide text is derived from it. Bridges are numbered along the chain shown (N, C = ends).

Legend:
KV4.1 channel (mKV4.1) = molecular target: T1, KV4.1 channel (mKV4.1) (Mus musculus, UniProt Q03719); assay: Whole-cell patch clamp, KV4.1 in CHO-K1 cells; format: cell-based
T1 construct: expressed in transfected cells; host or cells: CHO-K1 (transient, co-transfected with pEGFP-N1)
T1 sequence (Q03719 1-651): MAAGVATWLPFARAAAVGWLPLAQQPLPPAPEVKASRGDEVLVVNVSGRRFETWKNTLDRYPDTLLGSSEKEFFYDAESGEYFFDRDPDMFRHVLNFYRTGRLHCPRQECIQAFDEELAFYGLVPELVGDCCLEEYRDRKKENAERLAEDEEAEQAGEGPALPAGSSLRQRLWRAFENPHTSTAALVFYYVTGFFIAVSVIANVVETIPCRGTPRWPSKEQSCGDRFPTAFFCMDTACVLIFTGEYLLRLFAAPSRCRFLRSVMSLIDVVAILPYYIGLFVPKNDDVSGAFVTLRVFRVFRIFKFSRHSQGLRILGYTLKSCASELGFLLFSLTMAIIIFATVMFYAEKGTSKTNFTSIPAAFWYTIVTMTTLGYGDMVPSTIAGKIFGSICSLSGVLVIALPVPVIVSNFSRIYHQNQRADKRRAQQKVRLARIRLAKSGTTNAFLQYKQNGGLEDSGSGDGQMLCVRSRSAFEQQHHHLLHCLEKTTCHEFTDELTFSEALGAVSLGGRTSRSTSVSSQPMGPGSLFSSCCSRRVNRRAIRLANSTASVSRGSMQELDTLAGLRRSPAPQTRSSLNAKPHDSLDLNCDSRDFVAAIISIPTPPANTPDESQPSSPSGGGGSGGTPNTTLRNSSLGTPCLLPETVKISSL
Experimental: (§1) The cDNA of hKV1.1, hKV1.3, rKV1.4, hKV1.5, rKV2.1, hKV3.1–3.4, mKV4.1, rKV4.2, and rKV4.3 were subcloned in the eukaryotic expression vector pCDNA3.1 or pCMV-blank. Channel mutants were made by a site-directed mutation method. Briefly, a pair of oppositely directed primers with 15 bp overlap at their 5′ ends and the designed mutation site were used to amplify the parental channel plasmid, then the PCR mix was treated with DpnI to remove the template. 10 μL digestion mix was directly used to transform 100 μL DH5α chemical competent cells. The correct mutation made by this procedure was finally confirmed by DNA sequencing. CHO-K1 cells (ATCC® CCL-61™) were grown in DMEM-F12 mixed medium (1:1) supplemented with 10% FBS and maintained in standard conditions (saturated humidity, 37°C, 5% CO2). Channel plasmid was co-transfected with pEGFP-N1 (encodes the green fluoresence protein) into CHO-K1 cells using lipofectamine 2000 following the manufacturer’s instructions. 4–6 h after transfection, cells were seeded onto poly-lysine (PLL) coated coverslips, and 24–36 h later, transfected cells were ready for patch-clamp analysis. It should be note that KV4.2 and its mutants were also co-expressed with hKChIP1 to promote their functional expressions.
(§2) Whole-cell patch clamp recording was performed in an electrophysiology platform equipped with MultiClamp 700B amplifier and Axon Digidata 1550 AD/DA convertor (Axon Instruments, Irvine, CA, United States). Data were acquired using the pClamp software (Axon Instruments, Irvine, CA, United States). All experiments were performed at room temperature. The bath solution contains (in mM): 140 NaCl, 5 KCl, 1 MgCl2, 2 CaCl2, 10 glucose, and 10 HEPES (pH = 7.3). The pipette solution contains (in mM): 140 KCl, 2.5 MgCl2, 11 EGTA, and 10 HEPES (pH = 7.3). Series resistance was kept below 10 MΩ and compensated to 80%. The concentration–response curves were fitted by a Hill logistic equation to estimate the potency (IC50) of the toxin. The whole cell conductance (G) at each depolarizing voltage (V) was determined using the equation: G = I/(V−Vrev), where I and Vrev represents the current amplitude and the reversal potential, respectively. In the present study, Vrev for K^+ current is determined to be −85.61 mV using the Nernst equation. G-V curve was obtained by plotting the normalized G as a function of V and fitted by the Boltzmann equation: y = 1/{1 + exp [(Va−V)/K]}, in which Va, V, and K represents half-maximum activation voltage, test voltage and slope factor, respectively. The steady-state fast inactivation of KV4 channels was measured using a classical two-pulses protocol: cell was held at −120 mV, and a train of conditional voltages (−120–40 mV, in 10 mV increment, 1,000 ms) were applied to induce channel inactivation, followed by a +60 mV test pulse (300 ms) to assess the proportion of non-inactivated channels; the sweep interval was set to 10 s. Currents at the test pulse (I) were normalized to the maximum value (Imax) and plotted as a function of the conditional voltage (V), the curve was fitted by the Boltzmann equation: I/Imax = A + (1−A)/{1 + exp [(V−Vh)/K]}, where Vh is the half-maximum inactivation voltage, A represents the minimum channel availability, and K is the slope factor. Gating currents of KV4.1–4.3 channels were measured as previously reported ([Tilley et al., 2019]). Briefly, the ionic pore currents were abolished by replacing K^+ with NMDG^+ in the pipette solution, and 10 µM Cs^+ was present in the bath solution to occupy the selectivity filter of KV channels to prevent decay of the gating currents during recording.
(§3) Data were presented as MEAN ± SEM, n represents the number of separate experimental cells. Data were analyzed using the software Clampfit 10.5 (Axon Instruments, Irvine, CA, United States), Graphpad Prism 5.01 (GraphPad Software, La Jolla, CA, United States) and Excel 2010 (Microsoft Corporation, Redmond, WA, United States). […]

KV4.2/277LV/AA mutant = assay: Whole-cell patch clamp, KV4.2/277LV/AA (with hKChIP1) in CHO-K1 cells; format: cell-based, rat; settings: KV4.2/277LV/AA at Va depolarizing voltage, n = 5–7
Experimental: The cDNA of hKV1.1, hKV1.3, rKV1.4, hKV1.5, rKV2.1, hKV3.1–3.4, mKV4.1, rKV4.2, and rKV4.3 were subcloned in the eukaryotic expression vector pCDNA3.1 or pCMV-blank. Channel mutants were made by a site-directed mutation method. Briefly, a pair of oppositely directed primers with 15 bp overlap at their 5′ ends and the designed mutation site were used to amplify the parental channel plasmid, then the PCR mix was treated with DpnI to remove the template. 10 μL digestion mix was directly used to transform 100 μL DH5α chemical competent cells. The correct mutation made by this procedure was finally confirmed by DNA sequencing. […] 4–6 h after transfection, cells were seeded onto poly-lysine (PLL) coated coverslips, and 24–36 h later, transfected cells were ready for patch-clamp analysis. […]
Whole-cell patch clamp recording was performed in an electrophysiology platform equipped with MultiClamp 700B amplifier and Axon Digidata 1550 AD/DA convertor (Axon Instruments, Irvine, CA, United States). […] The whole cell conductance (G) at each depolarizing voltage (V) was determined using the equation: G = I/(V−Vrev), where I and Vrev represents the current amplitude and the reversal potential, respectively. In the present study, Vrev for K^+ current is determined to be −85.61 mV using the Nernst equation. […] Gating currents of KV4.1–4.3 channels were measured as previously reported ([Tilley et al., 2019]). […]

KV4.3/T277P mutant = assay: Whole-cell patch clamp, KV4.3/T277P in CHO-K1 cells; format: cell-based, rat
Experimental: as §1, §2, §3

[1] = 10 μM κ-LhTx-1, KV4.1, two-pulse protocol, mean ± SEM, n = 5
[2] = 10 μM κ-LhTx-1, G-V, mean ± SEM, n = 6
[3] = 10 μM κ-LhTx-1, two-pulse protocol, mean ± SEM, n = 6

## CC[C@H](C)[C@@H]1NC(=O)[C@H](CCC(N)=O)NC(=O)[C@@H]2CSSC[C@@H]3NC(=O)[C@H](CC(C)C)NC(=O)[C@H](CC(N)=O)NC(=O)[C@H](CCSC)NC(=O)[C@H](Cc4c[nH]c5ccccc45)NC(=O)[C@H](CO)NC(=O)[C@H](C)NC(=O)[C@@H](NC(=O)[C@H](CCC(=O)O)NC(=O)[C@H](CCC(N)=O)NC(=O)[C@H](C)NC(=O)[C@H](CC(=O)O)NC(=O)[C@@H](N)CCC(=O)O)CSSC[C@H](NC(=O)[C@H](CSSC[C@@H](C(=O)N[C@@H](CCCCN)C(=O)N[C@@H](Cc4ccc(O)cc4)C(=O)N[C@@H](CCCCN)C(=O)N[C@@H](CC(C)C)C(N)=O)NC(=O)[C@H](Cc4c[nH]c5ccccc45)NC1=O)NC(=O)[C@H](CCCCN)NC(=O)[C@H](CCCCN)NC(=O)[C@H](CCC(=O)O)NC(=O)CNC3=O)C(=O)N[C@@H](CCC(=O)O)C(=O)NCC(=O)N[C@@H](Cc1ccc(O)cc1)C(=O)N[C@@H](C(C)C)C(=O)N2 [κ-LhTx-1] (H-EDAQECASWMNLCGEKKCCEGYVCQIWCKYKL-NH2; disulfide 6-19, 13-24, 18-28 (inferred); N-terminus and C-terminus assumed)
KV4.1 channel (mKV4.1); 10 μM κ-LhTx-1, KV4.1, Boltzmann fit of G-V curve, mean ± SEM, n = 5
  Va (steady-state activation): 95.20 ± 1.68 mV
KV4.1 channel (mKV4.1); 10 μM κ-LhTx-1, KV4.1, G-V, mean ± SEM, n = 5
  k, slope factor (steady-state activation): 16.14 ± 1.78 mV
KV4.1 channel (mKV4.1); [1]
  Vh (steady-state inactivation): -32.48 ± 3.44 mV
  k, slope factor (steady-state inactivation): 22.88 ± 0.19 mV
KV4.1 channel (mKV4.1); KV4.1
  reversibility of inhibition: in a reversible manner
KV4.1 channel (mKV4.1); KV4.1, 10 µM, inhibition ratio at each depolarizing voltage, n = 5–8
  voltage-dependence of inhibition: affected by voltage to a much less extent
KV4.1 channel (mKV4.1); KV4.1, 10 µM, n = 5–8
  I-V: current inhibition below +60 mV: fully inhibited the currents at voltages below +60 mV
KV4.1 channel (mKV4.1); KV4.1, 10 µM, strong depolarization, n = 5–8
  I-V: reopening of toxin-bound channels: only depolarizations stronger than +70 mV could partially reopen the toxin-bound channels
KV4.1 channel (mKV4.1); KV4.1, saturating dose 10 μM, +30 mV
  maximum inhibition: fully inhibit
KV4.1 channel (mKV4.1); KV4.1 at Va depolarizing voltage
  current inhibition at Va: almost fully inhibited
KV4.1 channel (mKV4.1); Va shift by 10 μM κ-LhTx-1 vs control, KV4.1, mean ± SEM
  ∆Va (steady-state activation): 98.28 ± 2.66 mV
KV4.1 channel (mKV4.1); Vh shift by 10 μM κ-LhTx-1 vs control, KV4.1, mean ± SEM
  ∆Vh (steady-state inactivation): 29.27 ± 2.05 mV
KV4.2/277LV/AA mutant
  effect of mutation on toxin inhibition: profoundly weakened the effect
KV4.3/T277P mutant; [2]
  Va (steady-state activation): 49.17 ± 0.88 mV
  k, slope factor (steady-state activation): 22.21 ± 1.64 mV
KV4.3/T277P mutant; [3]
  Vh (steady-state inactivation): -35.46 ± 1.68 mV
  k, slope factor (steady-state inactivation): 8.50 ± 0.42 mV
KV4.3/T277P mutant; 10 μM, +100 mV
  inhi%(min) vs wild-type KV4.3: significantly elevated inhi%(min) value
KV4.3/T277P mutant; Va shift by 10 μM κ-LhTx-1 vs control, mean ± SEM
  ∆Va (steady-state activation): 40.47 ± 2.79 mV
KV4.3/T277P mutant; Vh shift by 10 μM κ-LhTx-1 vs control, mean ± SEM
  ∆Vh (steady-state inactivation): 11.63 ± 2.17 mV
